According to the supplement of paper PMC11451515:

Tested on: NOMO1
Assay: cell viability relative to DMSO control; higher = less cytotoxic
Settings: 48 h
Summary of the method: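 Library compounds in DMSO were pin-dosed into 1536-well plates (5 μl) holding NOMO1 or SEM (500 cells/well) or P12-Ichikawa (1000 cells/well) leukemia cells, across an 11-point threefold series of 47 μM to 0.79 nM. Each cell line had been adapted for at least four passages in each medium. CellTiter-Glo One luminescence was read after 48 h at 37°C. Viability is the per-plate percentage relative to DMSO wells, with cell-free wells as background.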

Cc1[nH]c(/C=C2\C(=O)Nc3ccc([S+](=O)([O-])Cc4c(Cl)cccc4Cl)cc32)c(C)c1C(=O)N1CCC[C@@H]1CN1CCCC1
cell viability [%]
Settings | HPLM + 10% dialyzed FBS | RPMI 5 mM glucose + 10% FBS | RPMI 5 mM glucose + 10% dialyzed FBS
0.000781 µM | 100 | 108 | 98.2
0.00234 µM | 112 | 101 | 89.8
0.00702 µM | 97.5 | 89.1 | 90.2
0.0211 µM | 83 | 93.2 | 94.4
0.0632 µM | 92.8 | 88 | 92.7
0.19 µM | 96.4 | 99.9 | 102
0.569 µM | 98.2 | 99.3 | 85.9
1.71 µM | 84.3 | 100 | 91.2
5.12 µM | 81.2 | 90.5 | 86.4
15.4 µM | 87.7 | 83.4 | 84.8
46.1 µM | 59.9 | 79.6 | 72.6
